One molecule from patent US20250099405A1, “COMPOSITIONS, METHODS, AND DEVELOPMENT OF ARID4B INHIBITORS” (University of Kentucky Research Foundation, priority 2022, published 2025) can be followed below.

The target in this assay is T1, HA-ARID4BAC (Homo sapiens, UniProt Q4LE39, DEL571-624).
T1 construct: transfected with vector, full-length ARID4B or ARID4B deletion mutants; expressed in transfected cells; host or cells: HEK-293T
T1 sequence (Q4LE39 with tags, fused parts or gaps DEL571-624): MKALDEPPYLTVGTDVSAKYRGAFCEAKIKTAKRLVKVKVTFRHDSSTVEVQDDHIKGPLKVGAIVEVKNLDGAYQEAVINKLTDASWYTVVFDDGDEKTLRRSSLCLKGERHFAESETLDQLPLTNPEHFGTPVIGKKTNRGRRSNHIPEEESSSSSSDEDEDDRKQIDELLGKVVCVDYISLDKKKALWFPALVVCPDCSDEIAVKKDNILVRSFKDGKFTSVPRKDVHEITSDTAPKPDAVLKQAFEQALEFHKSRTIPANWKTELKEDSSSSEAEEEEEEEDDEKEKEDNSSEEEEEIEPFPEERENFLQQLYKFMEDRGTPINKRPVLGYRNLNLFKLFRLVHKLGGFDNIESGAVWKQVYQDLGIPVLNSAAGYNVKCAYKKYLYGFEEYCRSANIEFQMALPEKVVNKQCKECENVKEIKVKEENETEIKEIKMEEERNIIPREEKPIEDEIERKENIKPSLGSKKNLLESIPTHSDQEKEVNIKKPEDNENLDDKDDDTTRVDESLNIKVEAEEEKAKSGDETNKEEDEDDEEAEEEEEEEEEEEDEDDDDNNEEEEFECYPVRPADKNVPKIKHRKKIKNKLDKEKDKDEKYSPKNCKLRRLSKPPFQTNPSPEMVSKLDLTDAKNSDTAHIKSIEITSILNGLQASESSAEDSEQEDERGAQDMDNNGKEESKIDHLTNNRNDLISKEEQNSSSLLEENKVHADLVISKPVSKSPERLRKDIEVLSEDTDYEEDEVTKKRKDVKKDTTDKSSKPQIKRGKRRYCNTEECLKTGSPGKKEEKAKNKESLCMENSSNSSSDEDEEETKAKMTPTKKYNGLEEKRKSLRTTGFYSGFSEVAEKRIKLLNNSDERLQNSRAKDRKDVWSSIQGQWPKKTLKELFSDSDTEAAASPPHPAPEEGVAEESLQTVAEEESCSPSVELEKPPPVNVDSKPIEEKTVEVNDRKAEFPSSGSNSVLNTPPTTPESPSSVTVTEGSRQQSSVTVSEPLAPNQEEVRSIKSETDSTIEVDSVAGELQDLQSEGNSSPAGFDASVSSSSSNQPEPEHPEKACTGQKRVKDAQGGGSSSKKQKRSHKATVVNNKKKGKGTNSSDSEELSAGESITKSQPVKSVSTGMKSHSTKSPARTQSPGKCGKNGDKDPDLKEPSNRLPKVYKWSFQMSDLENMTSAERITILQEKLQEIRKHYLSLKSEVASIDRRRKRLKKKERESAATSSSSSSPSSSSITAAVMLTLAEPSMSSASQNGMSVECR
As to the kind of experiment: CETSA in HEK-293T cells expressing the chromodomain deletion mutant. The following applies: 10 μM, 2 h. The class given is cell-based. The method, then:
(B-C) show cells expressing HA-ARID4B (C) or HA-ARID4BIC (D) treated or not with ARD150 (10 μM) for 2 h were used for CESTA. […] (D-E) show cells expressing HA-ARID4B (D) or Flag-ARID4A (E) treated or not with RWR-18 (10 μM) for 2 h were used for CESTA. […] Data are means±SEM from three experiments. *P<0.05, **P<0.01, ns, not significant.
Using CETSA (cellular thermal shift assay) to examine whether ARD150 or RWR-18 binds to ARID4B, MCF7 cells treated or not with ARD150 or RWR-18 for 2 h were collected, followed by heating at 46, 49, 52, 55, and 58° C. to denature and precipitate ARID4B protein, cell lysis, removal of cell debris and aggregates by centrifugation, and finally detection of remaining thermostable ARID4B protein by western blot. The ARID4B aggregation temperatures without ARD150 were determined to be 49-52° C., but shifted to 52-55° C. after treatment with ARD150 and even more so with RWR-18 (FIG. 15A-D). To determine whether ARD150 and RWR-18 targets the chromodomain of ARID4B, CESTA was performed using chromodomain deletion mutant (ARID4BAC). HEK-293T cells expressing HA-ARID4B or HA-ARID4BAC were treated or not with ARD150 (10 μM) for 2 h and processed for CESTA.

Regarding `COc1ccc(C(=O)NCCCN2CCOCC2)cc1OC` [ARD150], the “shift of aggregation temperatures of HA-ARID4BAC (chromodomain deletion mutant)” value is on record as “no shift was observed”.
